Reference: ChEMBL document CHEMBL5625232, “Development of selective class I protein arginine methyltransferase inhibitors through fragment-based drug design approach” (Eur J Med Chem, 2023)
Values after ≈ are worked out from the molar mass of the structure shown. Active and inactive are the calls of the source. The rule behind the calls is not given here.

Key:
[1] = Aqueous solubility of compound at pH 7.4 incubated for 24 hrs by HPLC-UV spectroscopy; assay type: physicochemical; settings: aqueous medium
[2] = target: T1, Protein arginine N-methyltransferase 1 (Homo sapiens, UniProt Q99873); experiment: Displacement of 3H-SAM from PRMT1 (unknown origin) using biotinylated-histone H4 peptide as substrate incubated for 45 mins by SPA assay
Target sequence in this assay (Q99873 whole entry): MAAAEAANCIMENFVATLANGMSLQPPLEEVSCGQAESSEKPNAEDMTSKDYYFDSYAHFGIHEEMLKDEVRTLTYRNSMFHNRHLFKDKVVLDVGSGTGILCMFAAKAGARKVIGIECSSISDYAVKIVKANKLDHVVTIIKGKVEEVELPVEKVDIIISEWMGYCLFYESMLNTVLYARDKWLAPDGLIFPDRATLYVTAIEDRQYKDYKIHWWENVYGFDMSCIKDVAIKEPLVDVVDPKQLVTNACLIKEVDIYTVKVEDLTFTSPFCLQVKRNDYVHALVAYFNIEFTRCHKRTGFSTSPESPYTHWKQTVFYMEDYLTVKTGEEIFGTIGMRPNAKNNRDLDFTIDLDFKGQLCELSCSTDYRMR

[3] = target: T2, Histone-lysine N-methyltransferase SUV39H1 (Homo sapiens, UniProt O43463); experiment: Displacement of 3H-SAM from SUV39H1 (unknown origin) using biotinylated-histone H3 peptide as substrate incubated for 45 mins by SPA assay
T2 sequence (O43463 whole entry): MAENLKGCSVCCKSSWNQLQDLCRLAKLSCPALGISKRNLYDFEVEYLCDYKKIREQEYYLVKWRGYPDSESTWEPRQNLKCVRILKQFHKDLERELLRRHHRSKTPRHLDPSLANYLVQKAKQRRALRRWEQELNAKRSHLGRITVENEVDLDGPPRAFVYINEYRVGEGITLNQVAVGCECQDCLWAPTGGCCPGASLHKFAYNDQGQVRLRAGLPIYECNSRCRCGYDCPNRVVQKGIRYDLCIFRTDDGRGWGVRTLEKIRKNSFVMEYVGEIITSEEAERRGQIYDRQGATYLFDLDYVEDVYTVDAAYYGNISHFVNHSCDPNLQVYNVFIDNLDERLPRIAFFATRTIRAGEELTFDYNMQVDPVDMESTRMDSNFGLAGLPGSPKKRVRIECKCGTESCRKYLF

[4] = target: T3, Histone-lysine N-methyltransferase SMYD3 (Homo sapiens, UniProt Q9H7B4); experiment: Displacement of 3H-SAM from SMYD3 (unknown origin) using biotinylated-MAP3K2 as substrate incubated for 45 mins by SPA assay
T3 sequence (Q9H7B4 whole entry): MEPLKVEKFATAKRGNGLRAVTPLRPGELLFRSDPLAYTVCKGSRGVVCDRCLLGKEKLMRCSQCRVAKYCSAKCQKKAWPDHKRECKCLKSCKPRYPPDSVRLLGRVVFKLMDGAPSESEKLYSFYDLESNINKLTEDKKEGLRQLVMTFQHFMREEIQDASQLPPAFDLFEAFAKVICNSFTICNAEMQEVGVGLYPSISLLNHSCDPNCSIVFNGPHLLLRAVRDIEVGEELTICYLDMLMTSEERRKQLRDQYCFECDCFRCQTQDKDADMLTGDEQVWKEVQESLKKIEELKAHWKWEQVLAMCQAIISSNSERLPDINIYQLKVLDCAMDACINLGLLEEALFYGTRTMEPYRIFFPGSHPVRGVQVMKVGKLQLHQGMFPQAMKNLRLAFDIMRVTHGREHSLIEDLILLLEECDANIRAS

[5] = target: Histone-lysine N-methyltransferase, H3 lysine-79 specific (Homo sapiens) (UniProt Q8TEK3); experiment: Displacement of 3H-SAM from DOT1L (unknown origin) at 30 uM incubated for 1 hr in presence of substrate by SPA assay relative to control
[6] = target: T4, Histone-lysine N-methyltransferase SMYD3 (Homo sapiens) (UniProt Q9H7B4); experiment: Displacement of 3H-SAM from SMYD3 (unknown origin) using biotinylated-MAP3K2 as substrate at 30 uM incubated for 45 mins by SPA assay relative to control
T4 sequence (whole entry): T3 sequence (Q9H7B4 whole entry)

[7] = target: T1, Protein arginine N-methyltransferase 1; experiment: Displacement of 3H-SAM from PRMT1 (unknown origin) using biotinylated-histone H4 peptide as substrate at 30 uM incubated for 45 mins by SPA assay relative to control
Target sequence in this assay (Q99873 whole entry, looked up): as the sequence (Q99873 whole entry) above

[8] = target: T5, Histone-arginine methyltransferase CARM1 (Homo sapiens, UniProt Q86X55); experiment: Inhibition of PRMT4 (unknown origin)
T5 sequence (Q86X55 whole entry): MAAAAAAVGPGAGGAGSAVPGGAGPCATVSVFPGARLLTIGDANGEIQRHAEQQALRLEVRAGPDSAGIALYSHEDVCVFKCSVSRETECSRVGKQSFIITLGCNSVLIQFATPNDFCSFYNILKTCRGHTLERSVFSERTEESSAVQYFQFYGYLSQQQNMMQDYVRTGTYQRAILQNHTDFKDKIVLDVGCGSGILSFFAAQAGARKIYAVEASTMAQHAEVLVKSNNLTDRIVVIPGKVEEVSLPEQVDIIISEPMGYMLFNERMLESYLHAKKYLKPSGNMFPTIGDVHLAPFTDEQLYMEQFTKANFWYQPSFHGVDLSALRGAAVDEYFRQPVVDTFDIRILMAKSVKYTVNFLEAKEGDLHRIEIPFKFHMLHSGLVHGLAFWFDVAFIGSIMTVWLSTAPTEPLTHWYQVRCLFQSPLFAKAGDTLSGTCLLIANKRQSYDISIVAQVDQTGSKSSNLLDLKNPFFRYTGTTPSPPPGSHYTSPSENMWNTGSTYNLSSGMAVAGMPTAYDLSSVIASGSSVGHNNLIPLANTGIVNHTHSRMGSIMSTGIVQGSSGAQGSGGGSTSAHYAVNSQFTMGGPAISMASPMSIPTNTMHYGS

[9] = target: T6, Histone-lysine N-methyltransferase SUV39H1 (Homo sapiens) (UniProt O43463); experiment: Displacement of 3H-SAM from SUV39H1 (unknown origin) using biotinylated-histone H3 peptide as substrate at 10 uM incubated for 45 mins by SPA assay relative to control
T6 sequence (whole entry): T2 sequence (O43463 whole entry)

[10] = target: T4, Histone-lysine N-methyltransferase SMYD3 (Homo sapiens); experiment: Displacement of 3H-SAM from SMYD3 (unknown origin) using biotinylated-MAP3K2 as substrate at 10 uM incubated for 45 mins by SPA assay relative to control
[11] = target: Protein arginine N-methyltransferase 6 (Homo sapiens, UniProt Q96LA8); experiment: Inhibition of PRMT6 (unknown origin)
[12] = target: T7, Protein arginine N-methyltransferase 8 (Homo sapiens, UniProt Q9NR22); experiment: Inhibition of PRMT8 (unknown origin)
[13] = target: T1, Protein arginine N-methyltransferase 1; experiment: Inhibition of PRMT1 (unknown origin)
Target sequence in this assay (Q99873 whole entry): as the sequence (Q99873 whole entry) above

[14] = target: T5, Histone-arginine methyltransferase CARM1; experiment: Displacement of 3H-SAM from human PRMT4 in presence of substrate by SPA assay
[15] = target: T7, Protein arginine N-methyltransferase 8; experiment: Displacement of 3H-SAM from human PRMT8 in presence of substrate by SPA assay
[16] = target: T1, Protein arginine N-methyltransferase 1; experiment: Displacement of 3H-SAM from PRMT1 (unknown origin) using biotinylated-histone H4 peptide as substrate upto 200 uM incubated for 45 mins by SPA assay
Target sequence in this assay (Q99873 whole entry, looked up): as the sequence (Q99873 whole entry) above

[17] = target: T6, Histone-lysine N-methyltransferase SUV39H1 (Homo sapiens); experiment: Displacement of 3H-SAM from SUV39H1 (unknown origin) using biotinylated-histone H3 peptide as substrate at 30 uM incubated for 45 mins by SPA assay relative to control
[18] = target: T6, Histone-lysine N-methyltransferase SUV39H1 (Homo sapiens); experiment: Displacement of 3H-SAM from SUV39H1 (unknown origin) using biotinylated-histone H3 peptide as substrate upto 200 uM incubated for 45 mins by SPA assay
[19] = target: T4, Histone-lysine N-methyltransferase SMYD3 (Homo sapiens); experiment: Displacement of 3H-SAM from SMYD3 (unknown origin) using biotinylated-MAP3K2 as substrate upto 200 uM incubated for 45 mins by SPA assay
[20] = Lipophilicity, log D of compound in 1-octanol at pH 7.4 incubated for 4 hrs by HPLC-UV analysis; assay type: physicochemical; settings: 1-octanol/aqueous phase

Histone-lysine N-methyltransferase, H3 lysine-79 specific (Homo sapiens), sequence (Q8TEK3 whole entry, looked up): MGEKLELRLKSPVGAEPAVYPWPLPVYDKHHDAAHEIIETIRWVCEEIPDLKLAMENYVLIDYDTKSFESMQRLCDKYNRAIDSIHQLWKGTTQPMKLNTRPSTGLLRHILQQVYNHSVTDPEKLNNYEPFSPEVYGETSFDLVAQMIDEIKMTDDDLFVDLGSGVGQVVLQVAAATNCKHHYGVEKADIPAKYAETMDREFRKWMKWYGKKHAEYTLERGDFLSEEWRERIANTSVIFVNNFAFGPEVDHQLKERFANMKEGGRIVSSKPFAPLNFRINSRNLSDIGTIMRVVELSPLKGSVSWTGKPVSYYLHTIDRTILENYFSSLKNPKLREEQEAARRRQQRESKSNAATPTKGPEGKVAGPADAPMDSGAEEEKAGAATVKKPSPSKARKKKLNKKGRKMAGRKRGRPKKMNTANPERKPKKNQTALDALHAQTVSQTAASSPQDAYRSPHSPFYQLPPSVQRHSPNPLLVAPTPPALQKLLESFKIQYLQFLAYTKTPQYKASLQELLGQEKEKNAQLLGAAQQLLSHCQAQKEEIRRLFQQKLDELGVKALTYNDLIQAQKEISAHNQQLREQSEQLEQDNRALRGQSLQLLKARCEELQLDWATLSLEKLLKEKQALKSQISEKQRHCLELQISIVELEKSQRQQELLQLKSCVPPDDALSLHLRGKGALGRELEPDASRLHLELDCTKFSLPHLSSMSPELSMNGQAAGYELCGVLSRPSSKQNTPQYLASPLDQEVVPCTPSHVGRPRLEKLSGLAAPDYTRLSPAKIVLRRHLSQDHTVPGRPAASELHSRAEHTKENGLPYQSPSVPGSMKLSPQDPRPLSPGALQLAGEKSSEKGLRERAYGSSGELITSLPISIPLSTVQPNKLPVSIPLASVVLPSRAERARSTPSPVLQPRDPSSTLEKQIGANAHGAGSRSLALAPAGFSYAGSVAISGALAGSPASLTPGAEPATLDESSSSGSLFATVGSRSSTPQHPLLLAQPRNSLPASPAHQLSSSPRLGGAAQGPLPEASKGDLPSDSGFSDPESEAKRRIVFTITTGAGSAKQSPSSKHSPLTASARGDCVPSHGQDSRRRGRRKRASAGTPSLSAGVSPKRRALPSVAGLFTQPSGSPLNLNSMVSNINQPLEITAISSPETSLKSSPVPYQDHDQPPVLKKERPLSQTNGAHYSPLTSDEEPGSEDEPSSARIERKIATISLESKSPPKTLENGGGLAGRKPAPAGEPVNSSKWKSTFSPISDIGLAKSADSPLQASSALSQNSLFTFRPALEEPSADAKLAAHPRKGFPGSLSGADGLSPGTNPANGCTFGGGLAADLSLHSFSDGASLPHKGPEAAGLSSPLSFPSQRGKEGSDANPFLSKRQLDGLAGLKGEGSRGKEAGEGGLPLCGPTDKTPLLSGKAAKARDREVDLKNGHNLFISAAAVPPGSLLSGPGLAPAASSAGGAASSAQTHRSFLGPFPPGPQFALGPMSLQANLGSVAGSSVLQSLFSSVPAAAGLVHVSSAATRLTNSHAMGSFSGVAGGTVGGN
T7 sequence (Q9NR22 whole entry): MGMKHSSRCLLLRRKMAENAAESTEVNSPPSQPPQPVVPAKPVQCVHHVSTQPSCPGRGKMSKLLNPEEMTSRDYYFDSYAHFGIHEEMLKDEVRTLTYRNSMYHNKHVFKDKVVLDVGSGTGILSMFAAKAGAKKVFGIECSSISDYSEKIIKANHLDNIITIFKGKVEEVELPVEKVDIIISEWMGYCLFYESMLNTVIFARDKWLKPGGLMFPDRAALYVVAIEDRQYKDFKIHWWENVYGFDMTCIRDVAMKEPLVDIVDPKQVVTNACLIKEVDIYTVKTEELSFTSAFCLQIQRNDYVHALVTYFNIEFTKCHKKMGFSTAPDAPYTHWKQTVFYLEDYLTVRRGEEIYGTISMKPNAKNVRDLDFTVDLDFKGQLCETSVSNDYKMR
Protein arginine N-methyltransferase 6, sequence (Q96LA8 whole entry): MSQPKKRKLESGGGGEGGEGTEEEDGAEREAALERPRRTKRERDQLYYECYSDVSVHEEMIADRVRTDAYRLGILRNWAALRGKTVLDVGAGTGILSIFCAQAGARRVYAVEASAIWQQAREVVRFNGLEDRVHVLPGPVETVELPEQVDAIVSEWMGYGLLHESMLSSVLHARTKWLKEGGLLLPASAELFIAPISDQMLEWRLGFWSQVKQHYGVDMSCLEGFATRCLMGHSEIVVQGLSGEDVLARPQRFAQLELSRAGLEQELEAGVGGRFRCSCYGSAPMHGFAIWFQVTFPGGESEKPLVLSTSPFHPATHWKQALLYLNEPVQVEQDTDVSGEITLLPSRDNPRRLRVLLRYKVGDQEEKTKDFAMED

## CCCSc1ccc2nc(NC(=O)OC)[nH]c2c1 [ALBENDAZOLE]
[1]
  solubility at 24 h: 2.2 µg/mL (≈ 8.29 µM)

## NC1CCN(c2ncnc3cc(C(=O)NC4CCNCC4)ccc23)CC1
[2]
  IC50: > 200 µM
[3]
  IC50: > 200 µM
[4]
  IC50: > 200 µM

## CN(C)CCNC(=O)c1ccc2c(Nc3ccc(CN)cc3)ncnc2c1
[5]
  inhibition: 5%
[6]
  inhibition: < 25%
[7]
  inhibition: < 25%
[3]
  IC50: 22 µM

## CNCCNC(=O)c1ccc2c(Nc3ccc(CN)cc3)ncnc2c1
[5]
  inhibition: 15%
[6]
  inhibition: < 25%
[3]
  IC50: 23 µM

## CNCCNc1cccc(-n2nc(C(F)(F)F)cc2C(=O)NCc2ccccc2OC)c1
[8]
  IC50: 0.005 µM

## CNCCN1CCC(NC(=O)c2ccc3c(Nc4ccc(CNC)cc4)ncnc3c2)C1 (configuration not stated)
[2]
  IC50: 2 µM
[9]
  inhibition: < 25%
[10]
  inhibition: < 25%

## NCc1ccc(Nc2ncnc3cc(C(=O)N4CCC(N)C4)ccc23)cc1 (configuration not stated)
[2]
  IC50: > 100 µM
[3]
  IC50: > 100 µM
[4]
  IC50: > 200 µM

## NC1CCN(c2ncnc3cc(C(=O)NC4CCNC4)ccc23)CC1 (configuration not stated)
[3]
  IC50: 16 µM
[4]
  IC50: 60 µM

## CN(C)CCN1CCC(NC(=O)c2ccc3c(Nc4ccc(CN)cc4)ncnc3c2)C1 (configuration not stated)
[5]
  inhibition: 10%
[6]
  inhibition: < 25%
[3]
  IC50: 16 µM

## NC1CCN(c2ncnc3cc(C(=O)NCCN4CCNCC4)ccc23)CC1
[2]
  IC50: > 100 µM
[3]
  IC50: > 200 µM
[4]
  IC50: > 200 µM

## CNCCNCc1c[nH]nc1-c1ccc(O[C@H]2C[C@H](OCCC3CCCCC3)C2)cc1
[11]
  IC50: 0.01 µM
[12]
  IC50: 0.223 µM
[13]
  IC50: 0.119 µM

## CC(C)Oc1ccc(-c2c[nH]cc2CN(C)CCN)cc1
[14]
  IC50: 45 µM
[15]
  IC50: 9 µM

## CN1CCC(NC(=O)c2ccc3c(Nc4ccc(CN)cc4)ncnc3c2)C1 (configuration not stated)
[9]
  inhibition: < 25%
[16]
  inhibition: inactive
[10]
  inhibition: < 25%

## CN1CCN(CCNC(=O)c2ccc3c(Nc4ccc(CN)cc4)ncnc3c2)CC1
[5]
  inhibition: 17%
[6]
  inhibition: < 25%
[17]
  inhibition: < 25%
[7]
  inhibition: < 25%

## NCc1ccc(Nc2ncnc3cc(C(=O)NCCN4CCNCC4)ccc23)cc1
[3]
  IC50: 35 µM
[4]
  IC50: 74 µM

## CNCCCNC(=O)c1ccc2c(Nc3ccc(CN)cc3)ncnc2c1
[9]
  inhibition: < 25%
[10]
  inhibition: < 25%

## NCc1ccc(Nc2ncnc3cc(C(=O)NCCN4CCCC4)ccc23)cc1
[5]
  inhibition: 9%
[6]
  inhibition: < 25%
[7]
  inhibition: < 25%
[3]
  IC50: 14 µM

## NC1CCN(c2ncnc3cc(C(=O)NC4CCCC4)ccc23)CC1
[18]
  inhibition: inactive
[19]
  inhibition: inactive
[16]
  inhibition: inactive

## NCc1ccc(NC(=O)c2ccc3c(N4CCC(N)CC4)ncnc3c2)cc1
[3]
  IC50: 7 µM
[4]
  IC50: 8 µM

## NCc1ccc(Nc2ncnc3cc(C(=O)NC4CCNC4)ccc23)cc1 (configuration not stated)
[3]
  IC50: 47 µM
[4]
  IC50: 63 µM

## COCCc1ccc(OCC(O)CNC(C)C)cc1 (configuration not stated) [METOPROLOL]
[20]
  logD at 4 h: -0.28

## NCc1ccc(Nc2ncnc3cc(C(=O)NC4CCNCC4)ccc23)cc1
[2]
  IC50: > 200 µM
[3]
  IC50: > 200 µM
[4]
  IC50: > 100 µM
